Data reported in patent US10408843B2, “Compositions and methods for detecting S-nitrosylation and S-sulfinylation” (The Regents of the University of Michigan, priority 2013, dated 2019).
Blank lines part the entries; values can stand above or below the compound they belong to.

Columns and labels:
[1] = assay type: physicochemical
Description: S-nitrosoglutathione (GSNO, Cayman) and sodium phenylsulfinate (Sigma-Aldrich) were used for rate-determination studies at four pH values: pH 1.0 (0.2 N HCl/KCl buffer), pH 4.0 (0.1 M Sodium acetate/Acetic Acid buffer), pH 7.0 (0.1 M potassium phosphate buffer) and pH 10.0 (0.1 M Sodium bicarbonate/Sodium hydroxide buffer). The purity of S-nitrosoglutathione was calculated as 94±1.3% by absorbance at 334 nm using the molar extinction coefficient of 900 M^−1 cm^−1. Assays were performed using a plate reader (Tecan Infinite F500) monitoring absorbance of 2 mM GSNO at 340 nm over a course of 90 minutes in the presence of varying concentrations of sodium phenylsulfinate. Additional experiments confirmed thiosulfonate stability for >5 hours at pH 1, 4, and 7, but hydrolysis at pH 10. GSNO was stable in 6 M urea/PBS for >1 hour. Absorbance data was imported into KaleidaGraph (version 4.02, Synergy Software), and logarithmically fit to the first order exponential decay. The Kobs was calculated for each phenylsulfinic acid concentration, and plotted to calculate the rate constant for the overall reaction.

human DJ-1 (Cys106-SO2H) = molecular target: T1, human DJ-1 (Cys106-SO2H) (Homo sapiens, UniProt Q99497); assay: LC-MS analysis of DJ-1 conjugation with an S-nitrosothiol; assay type: biochemical; conditions: after iodoacetamide alkylation
T1 construct: 6His; made in house; host or cells: E. coli BL21
T1 sequence (Q99497 1-189): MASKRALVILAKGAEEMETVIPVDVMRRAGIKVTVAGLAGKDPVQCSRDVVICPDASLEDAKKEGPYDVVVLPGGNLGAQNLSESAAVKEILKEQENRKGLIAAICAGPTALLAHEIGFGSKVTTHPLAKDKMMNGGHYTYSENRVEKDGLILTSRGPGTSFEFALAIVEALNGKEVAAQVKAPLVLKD
Source text: (§1) FIG. 20A-C. S-nitrosothiol probes detect endogenous S-sulfinylation. (a) Direct conjugation of human DJ-1 (Cys106-SO2H) with N-acetyl-S-nitrosocysteine methyl ester. (b) MS/MS assignment of product ions from the S-sulfinylated peptide of human DJ-1, confirming direct thiosulfonate formation. (c) Gel-based analysis of S-sulfinylation in mammalian lysates with biotin-GSNO. Lysates are denatured and pre-alkylated with iodoacetamide.
It was next asked what would happen if the detection scheme was reversed, using S-nitrosothiol-linked probes to detect endogenous S-sulfinylation. Similar reactivity was recently reported using aryl-nitroso ligation to several sulfinic acid standards, including glutathione, to form a stable N-sulfonylbenzisoxazolone (see, e.g., Lo Conte, M. & Carroll, K. S. Angew Chem Int Ed Engl 51, 6502-5 (2012)). Despite such progress, there are no reported methods to selectively profile endogenous S-sulfinylation in complex proteomes. […]
Purified human GAPDH was diluted to 0.2 mg/mL in phosphate buffered saline (pH 7.3), and treated with 20 mM iodoacetamide for 30 minutes. […] Eluted peptides were analyzed using a Waters Synapt G2-S HDMS time-of-flight mass spectrometer in positive mode. […] MS data was searched using Waters Protein Lynx Global Server v3.0 using the exact mass calculated for the cysteine thiosulfonate modification.

[2] = test system: S-sulfinylated proteins in mammalian lysates; assay: Gel-based analysis of S-sulfinylation with biotin-GSNO; assay type: biochemical; conditions: lysates in 6 M urea/PBS, pre-alkylated with iodoacetamide
Source text: as §1
It was next asked what would happen if the detection scheme was reversed, using S-nitrosothiol-linked probes to detect endogenous S-sulfinylation. Similar reactivity was recently reported using aryl-nitroso ligation to several sulfinic acid standards, including glutathione, to form a stable N-sulfonylbenzisoxazolone (see, e.g., Lo Conte, M. & Carroll, K. S. Angew Chem Int Ed Engl 51, 6502-5 (2012)). Despite such progress, there are no reported methods to selectively profile endogenous S-sulfinylation in complex proteomes. In order to test this approach, recombinant human DJ-1 was purified, a redox chaperone that spontaneously forms a stable sulfinic acid at Cys106 (see, e.g., Canet-Aviles, R. M. et al. Proc Natl Acad Sci USA 101, 9103-8 (2004)). After iodoacetamide alkylation of free thiols, N-acetyl-S-nitrosocysteine methyl ester was added to DJ-1, and processed for high-resolution LC-MS analysis (FIG. 20A and FIG. 21)). […]

stability [1]: > 1 h
SMILES: N[C@@H](CCC(=O)N[C@@H](CSN=O)C(=O)NCC(=O)O)C(=O)O [GSNO, S-nitrosoglutathione, reference compound]

SMILES: COC(=O)[C@H](CSN=O)NC(C)=O [N-acetyl-S-nitrosocysteine methyl ester, (R)-methyl 2-acetamido-3-(nitrosothio)propanoate]
thiosulfonate formation with DJ-1 (human DJ-1 (Cys106-SO2H)): confirmed thiosulfonate formation at Cys106-SO2H

SMILES: O=NSC[C@H](NC(=O)CCC(NC(=O)CCCC[C@@H]1SC[C@@H]2NC(=O)N[C@@H]21)C(=O)O)C(=O)NCC(=O)O (stereo partly drawn) [biotin-GSNO, 5-(((R)-1-((carboxymethyl)amino)-3-(nitrosothio)-1-oxopropan-2-yl)amino)-5-oxo-2-(5-((3aS,4S,6aR)-2-oxohexahydro-1H-thieno[3,4-d]imidazol-4-yl)pentanamido)pentanoic Acid]
labeling of S-sulfinylated proteins [2]: distinct profile of putative S-sulfinylated proteins
